Biological target: DNA-PK (Homo sapiens, UniProt P78527)
Experiment: DNA-PK inhibition assay (radiometric 33P-ATP kinase assay)
Type: biochemical
Conditions: 100 μM ATP; competitive tight-binding fit
Experimental: Compounds were screened for their ability to inhibit DNA-PK kinase using a standard radiometric assay. Briefly, in this kinase assay the transfer of the terminal ^33P-phosphate in ^33P-ATP to a peptide substrate is interrogated. The assay was carried out in 384-well plates to a final volume of 50 μL per well containing approximately 6 nM DNA-PK, 50 mM HEPES (pH 7.5), 10 mM MgCl2, 25 mM NaCl, 0.01% BSA, 1 mM DTT, 10 μg/mL sheared double-stranded DNA (obtained from Sigma), 0.8 mg/mL DNA-PK peptide ([…] obtained from American Peptide), and 100 μM ATP. Accordingly, compounds of the invention were dissolved in DMSO to make 10 mM initial stock solutions. Serial dilutions in DMSO were then made to obtain the final solutions for the assay. A 0.75 μL aliquot of DMSO or inhibitor in DMSO was added to each well, followed by the addition of ATP substrate solution containing ^33P-ATP (obtained from Perkin Elmer). The reaction was started by the addition of DNA-PK, peptide and ds-DNA. After 45 min. the reaction was quenched with 25 μL of 5% phosphoric acid. The reaction mixture was transferred to MultiScreen HTS 384-well PH plates (obtained from Millipore), allowed to bind for one hour, and washed three times with 1% phosphoric acid. Following the addition of 50 μL of Ultima Gold™ high efficiency scintillant (obtained from Perkin Elmer), the samples were counted in a Packard TopCount NXT Microplate Scintillation and Luminescence Counter (Packard BioScience). The Ki values were calculated using Microsoft Excel Solver macros to fit the data to the kinetic model for competitive tight-binding inhibition.

SMILES | Ki
CNC(=O)c1ncnc2c([C@H](C)CNc3cc(-c4ccc(OC)nc4)ncn3)cccc12 [Compound 1005] | < 30 nM
CNC(=O)c1ccnc2c([C@H](C)CNc3cc(-c4ccc(NC5CCN(C(C)=O)CC5)nc4)ncn3)cccc12 [Compound 1064] | < 30 nM
CNC(=O)c1ccnc2c([C@H](C)CNc3cc(-c4ccc(CC5CCN(C)CC5)nc4)ncn3)ccc(F)c12 [Compound 992] | < 30 nM
CNC(=O)c1c(F)cnc2c([C@H](C)CNc3cc(-c4cnc(COC(C)C)nc4)ncn3)cccc12 [Compound 1015] | < 30 nM
CCN(CC)c1cc(-c2cc(NC[C@@H](C)c3cccc4c(C(=O)NC)ccnc34)ncn2)ccn1 [Compound 892] | < 30 nM
CNC(=O)c1ccnc2c([C@H](C)CNc3cc(-c4ccc(CC5CCN(CC(F)F)CC5)nc4)ncn3)cccc12 [Compound 1019] | < 30 nM
[2H]c1nc(C)nc([2H])c1-c1cc(NC[C@@H](C)c2cccc3c(C(N)=O)ccnc23)ncn1 [Compound 1027] | < 30 nM
CNC(=O)c1c(F)cnc2c([C@H](C)CNc3cc(-c4cnc(CC5CCN(CC(F)F)CC5)nc4)ncn3)cccc12 [Compound 1046] | < 30 nM
CNC(=O)c1ccnc2c([C@H](C)CNc3cc(-c4cnc5c(c4)COC5(C)C)ncn3)cccc12 [Compound 986] | < 30 nM
CNC(=O)c1ncnc2c([C@H](C)CNc3cc(-c4ccc(C(=O)NCCC#N)nc4)ncn3)cccc12 [Compound 1016] | < 30 nM
CNC(=O)c1ncnc2c([C@H](C)CNc3cc(-c4cnc(OC)nc4)ncn3)cccc12 [Compound 1009] | < 30 nM
CNC(=O)c1c(F)cnc2c([C@H](C)CNc3cc(-c4cnc(OC5CCN(C)CC5)nc4)ncn3)cccc12 [Compound 1050] | < 30 nM
CNC(=O)c1c(F)cnc2c([C@H](C)CNc3cc(-c4cnc(N(C)C5CCN(CC(F)F)CC5)nc4)ncn3)cccc12 [Compound 1062] | < 30 nM
CNC(=O)c1ccnc2c([C@H](C)CNc3cc(-c4ccc(N(C)C5CCN(C(C)=O)CC5)nc4)ncn3)cccc12 [Compound 1088] | < 30 nM
CNC(=O)c1ccnc2c([C@H](C)CNc3cc(-c4ccc(C5(O)COC5)nc4)ncn3)cccc12 [Compound 1067] | < 30 nM
CNC(=O)c1c(F)cnc2c([C@H](C)CNc3cc(-c4cnc(CC5CCN(C)CC5)nc4)ncn3)cccc12 [Compound 1002] | < 30 nM
CNC(=O)c1c(F)cnc2c([C@H](C)CNc3cc(-c4cnc(N(C)C5CCN(C)CC5)nc4)ncn3)cccc12 [Compound 1058] | < 30 nM

SMILES | Ki
CNC(=O)c1ccnc2c([C@H](C)CNc3cc(-c4cnc(COC)nc4)ncn3)ccc(F)c12 [Compound 1000] | < 30 nM
CNC(=O)c1ccnc2c([C@H](C)CNc3cc(-c4cnc(NC5CC5)nc4)ncn3)cccc12 [Compound 1029] | < 30 nM
CNC(=O)c1c(F)cnc2c([C@H](C)CNc3cc(-c4cnc(CC5CCN(CC(F)(F)F)CC5)nc4)ncn3)cccc12 [Compound 1048] | < 30 nM
CNC(=O)c1ccnc2c([C@H](C)CNc3cc(-c4ccnc(C(C)OC)c4)ncn3)cccc12 (single isomer, unassigned) [Compound 1039] | < 30 nM
CNC(=O)c1c(F)cnc2c([C@H](C)CNc3cc(-c4ccc(N(C)C5CCN(CC(F)F)CC5)nc4)ncn3)cccc12 [Compound 1089] | < 30 nM
CNC(=O)c1ccnc2c([C@H](C)CNc3cc(-c4cnc(NC5CCN(CC(F)(F)F)CC5)nc4)ncn3)cccc12 [Compound 1080] | < 30 nM
CNC(=O)c1ccnc2c([C@H](C)CNc3cc(-c4ccc(CC5CCN(CC(F)F)CC5)nc4)ncn3)ccc(F)c12 [Compound 1020] | < 30 nM
CNC(=O)c1c(F)cnc2c([C@H](C)CNc3cc(-c4cnc(COC)nc4)ncn3)cccc12 [Compound 999] | < 30 nM
CNC(=O)c1ccnc2c([C@H](C)CNc3cc(-c4ccc(CC5CCN(CC(F)(F)F)CC5)nc4)ncn3)cccc12 [Compound 1023] | < 30 nM
COc1ccc(CCNc2cc(-c3ccc4ncccc4c3)ncn2)c(OC)c1 [Compound 28] | < 30 nM
CNC(=O)c1c(F)cnc2c([C@H](C)CNc3cc(-c4ccc(NC5CCN(CC(F)F)CC5)nc4)ncn3)cccc12 [Compound 1084] | < 30 nM
CNC(=O)c1ccnc2c([C@H](C)CNc3cc(-c4cnc(NC5CCN(C)CC5)nc4)ncn3)cccc12 [Compound 1078] | < 30 nM
CNC(=O)c1c(F)cnc2c([C@H](C)CNc3cc(-c4ccc(C5(O)COC5)nc4)ncn3)cccc12 [Compound 1068] | < 30 nM
CNC(=O)c1c(F)cnc2c([C@H](C)CNc3cc(-c4cnc(N(C)C5CCN(C(C)=O)CC5)nc4)ncn3)cccc12 [Compound 1059] | < 30 nM
CNC(=O)c1ccnc2c([C@H](C)CNc3cc(-c4cnc(OC(C)(C)C)nc4)ncn3)ccc(F)c12 [Compound 998] | < 30 nM
CNC(=O)c1ccnc2c([C@H](C)CNc3cc(-c4cnc(CC5CCN(C(C)=O)CC5)nc4)ncn3)cccc12 [Compound 1071] | < 30 nM

Now from value to molecule:

Ki | SMILES
< 30 nM | CNC(=O)c1c(F)cnc2c([C@H](C)CNc3cc(-c4cnc(NCC(=O)N(C)C)nc4)ncn3)cccc12 [Compound 1076]
< 30 nM | CNC(=O)c1ccc([C@H](C)CNc2cc(-c3ccc(NC(C)COC)nc3)ncn2)c(OC)c1 (single isomer, unassigned) [Compound 394]
< 30 nM | CNC(=O)c1ccnc2c([C@H](C)CNc3cc(-c4cnc(OC)nc4)ncn3)ccc(F)c12 [Compound 1031]
< 30 nM | CNC(=O)c1c(F)cnc2c([C@H](C)CNc3cc(-c4cnc(NC5CCN(CC(F)F)CC5)nc4)ncn3)cccc12 [Compound 1037]
< 30 nM | CNC(=O)c1ccnc2c([C@H](C)CNc3cc(-c4cnc(N(C)C5CCN(CC(F)F)CC5)nc4)ncn3)cccc12 [Compound 1060]
< 30 nM | CNC(=O)c1ccnc2c([C@H](C)CNc3cc(-c4cnc(N(C)C5CCN(C(C)=O)CC5)nc4)ncn3)cccc12 [Compound 1081]
< 30 nM | CNC(=O)CNc1ncc(-c2cc(NC[C@@H](C)c3cccc4c(C(=O)NC)ccnc34)ncn2)cn1 [Compound 1074]
< 30 nM | CNC(=O)c1c(F)cnc2c([C@H](C)CNc3cc(-c4ccc(CC5CCN(CC(F)F)CC5)nc4)ncn3)cccc12 [Compound 1043]
< 30 nM | CNC(=O)c1ccnc2c([C@H](C)CNc3cc(-c4cnc5c(c4)C(C)OC5)ncn3)cccc12 (single isomer, unassigned) [Compound 1012]
< 30 nM | CNC(=O)c1ccnc2c([C@H](C)CNc3cc(-c4ccc(N(C)C5CCN(CC(F)(F)F)CC5)nc4)ncn3)cccc12 [Compound 1042]
< 30 nM | COc1ccccc1[C@H](C)CNc1cc(-c2ccnc(N[C@@H](C)CO)c2)ncn1 (single isomer, unassigned) [Compound 213]
< 30 nM | CNC(=O)c1c(F)cnc2c([C@H](C)CNc3cc(-c4cnc(NCC(F)(F)F)nc4)ncn3)cccc12 [Compound 1033]
< 30 nM | CNC(=O)c1c(F)cnc2c([C@H](C)CNc3cc(-c4cnc(N(C)C5CCN(CC(F)(F)F)CC5)nc4)ncn3)cccc12 [Compound 1082]
< 30 nM | CNC(=O)c1c(F)cnc2c([C@H](C)CNc3cc(-c4cnc(C(C)C)nc4)ncn3)cccc12 [Compound 859]
< 30 nM | CNC(=O)c1ccnc2c([C@H](C)CNc3cc(-c4cnc(NCC(F)(F)F)nc4)ncn3)ccc(F)c12 [Compound 1054]
< 30 nM | Cc1ccc(-c2cc(NCC(C)c3cncc4c3OCC4)ncn2)cn1 (stereo not shown) [Compound 418]
